# B1: HMGB-1: high mobility group box 1 protein (ProSci), diabetic DAMP (protein, UniProt P09429 1-215, looked up)
# High mobility group protein B1: MGKGDPKKPRGKMSSYAFFVQTCREEHKKKHPDASVNFSEFSKKCSERWKTMSAKEKGKFEDMAKADKARYEREMKTYIPPKGETKKKFKDPNAPKRPPSAFFLFCSEYRPKIKGEHPGLSIGDVAKKLGEMWNNTAADDKQPYEKKAAKLKEKYEKDIAAYRAKGKPDAAKKGVVKAEKSKKKKEEEEDEEDEEDEEEEEDEEDEDEEEDDDDE
# Tests used:
# [1] = tested on: caspase-1 (inflammasome activation) in urothelial cells; assay: Caspase-1 activity in isolated mouse urothelial cells treated with diabetic DAMPS in vitro; settings: DAMP 24 h (ATP 1 h)
# [2] = tested on: caspase-1 activation in urothelial cells; assay: Caspase-1 assay in isolated rat urothelial cells treated with stone DAMPs, with or without inhibitors; settings: for maximal response of caspase-1 activation: normalized to 1.25 mM ATP 1 h; for concentration sufficient to completely suppress caspase-1 activation in MSU-treated cells: 1.25 μg/mL MSU 24 h
# Description: Briefly, rats were sacrificed and the bladders removed and placed in sterile PBS. Bladders were then inverted over an 18-gauge blunt tip needle, inflated with PBS, and a purse string suture was used to tie off the bladder. The inflated bladder was then submerged in Collagenase P (1 mg/ml in complete media) and shaken for 1 hour at 37° C. […] Media was removed and replaced with fresh media (90 μL for agonist studies, 80 μL for inhibitor studies) just prior to the start of experimental treatments.
# Using PBS (for CPPD) or complete media (for MSU), 1:2 serial dilutions were prepared. Wells were then treated with 10 μL of the appropriate dilution of stone DAMP for a final volume of 100 μL. After treatment, cells were incubated for another 24 hours at 37° C.
# For inhibition response studies, the general ROS scavenger N-acetylcysteine was prepared to the stock concentration of 5 mM for MSU treatment and to 50 mM for CPPD treatment. Prior to treatment, the stock concentration of NAC was buffered to pH 7.2. […] Using complete media for NAC and PBS for Verapamil, 1:2 serial dilutions were prepared. Cells were treated with 10 μL of NAC or Verapamil and incubated at 37° C. for 1 or 4 hours, respectively. […] Plates were then incubated for an additional 24 hours at 37° C.
# Briefly, media was removed and cells lysed in 50 μl lysis buffer (10 mM MgCl2 and 0.25% Igepal CA-630) for 5 minutes. An additional 50 μL of storage buffer (40 mM HEPES (pH 7.4), 20 mM NaCl, 2 mM EDTA and 20% glycerol) was added, and the plates frozen at −80° C. until use (>30 minutes). […] Plates were then incubated in the dark for 1 hour at 37° C. with mild shaking. Florescence was then measured (excitation 400 nm, emission 505 nm).
# BOO [3] = assay: Density of Ki-67+ proliferating cells in hippocampus after BOO; format: in vivo, rat; settings: 12 weeks of BOO; glyburide pellet
# Description: (§1) Sides were alternated thereafter.
# (§2) Brains were fixed (10% neutral buffered formalin; 48 h, rt) and grossly cut (coronally) to the hippocampus before being embedded in paraffin with the plane of the hippocampus on the block face. Citrate antigen retrieval was used prior to staining 10 μm coronal sections with anti-IbA1/AIF1 (1:500) (NBP2-19019; Novus Biologicals, Centennial, Colo.) or Anti-Ki67 (1:500) (ab15580; Abcam, Cambridge, Mass.) via standardard methodology. IbA1 was visualized via HRP development (Vectastain ABC Kit; Vector, Burlingame, Calif.), biotinylated secondary antibody provided). Ki-67 was visualized using a goat anti-rabbit secondary antibody conjugated to Alexa Fluor 488 (111-545-144; Jackson ImmunoResearch Labs, West Grove, Pa.). […]
# (§3) A Zeiss Axio Imager 2 microscope (Zeiss, Oberkochen, Germany) running Zen software (Zeiss) using the tiling and stitching feature was used to scan one entire hemisphere. […] Slides were quantitated by a researcher blinded to the groups. For microglia, we demarcated 600,000-700,000 μm^2 of the fascia dentata, counted the number of black/brown spots with two or greater associated tendrils and calculated microglial density. For Ki-67^+ cells we demarcated the entire dentate gyrus, CA1, CA2 and CA3 regions, quantitated nuclei (DAPI^+) that were Ki-67^+ (green florescence) and calculated the density.
# BOO [4] = assay: Density of activated microglia (IbA1/AIF1) in hippocampus after BOO; format: in vivo, rat; settings: 12 weeks of BOO; glyburide pellet
# Description: as §1, §2, §3
# [5] = cited from earlier work
# BOO [6] = assay: Open field assay after BOO; format: in vivo, rat; settings: 12 weeks of BOO; glyburide pellet; fluoxetine ≈20 mg/kg/day in drinking water, last 4 weeks
# BOO [7] = assay: Evans blue assay in hippocampus after BOO; format: in vivo, rat
# Description: as §1
# Rats were weighed and then injected (i.v. 3 ml/kg) with 2% Evan's blue dye in sterile saline by an investigator blinded to the groups (Belayev et al. (1996) Brain Res 739: 88-96). After one hour, rats were euthanized and transcardially perfused with cold PBS to remove intravascular dye. The brain was isolated and the hippocampus dissected, weighed and placed into formamide (0.25 ml) overnight (56° C.). Absorbance (620 nm) was measured and compared to a standard curve to calculate pg Evans blue/μg tissue.
# BOO [8] = assay: Bladder weight after bladder outlet obstruction (BOO); settings: 12 weeks of BOO; glyburide 50 mg 21-day slow release pellet
# Description: For most studies rats were assigned to 4 groups; 1) Control, 2) Sham, 3) BOO or 4) BOO+glyburide (Gly). […] For Sham and all BOO groups, animals were anesthetized [ketamine hydrochloride (90 mg/kg), xylazine (10 mg/kg); i.p.] and a 1 mm o.d. catheter (P50 tubing) inserted transurethrally. BOO was created by urethral ligation over a 1 mm catheter. A 5-0 silk suture was passed around the urethra and tied securely for BOO and loosely for Sham. The catheter was removed and the abdominal wall closed. For BOO+Gly, a subcutaneous pocket was made on the side of the neck and a single 50 mg, 21-day slow release pellet (Innovative Research of America, Sarasota, Fla.) inserted and the incision closed. A new pellet was placed (contralateral side) after 21 days. Sides were alternated thereafter.
# Bladders from the various groups indicated in FIG. 18 were weighed when they were removed for the various endpoints in this experiment.
# BOO [9] = assay: Sucrose preference assay after BOO; format: in vivo, rat; settings: 12 weeks of BOO; glyburide pellet; fluoxetine ≈20 mg/kg/day in drinking water, last 4 weeks
# [10] = cited from earlier work; remark: listed apart in the source
molecule,measurement,setting,value
CN(N=O)C(=O)N[C@H]1C(O)O[C@H](CO)[C@@H](O)[C@@H]1O (mixture of isomers) [streptozotocin],caspase-1 activity (inflammasome activation),[1],directly activates the inflammasome
Nc1ncnc2c1ncn2[C@@H]1O[C@H](COP(=O)(O)OP(=O)(O)OP(=O)(O)O)[C@@H](O)[C@H]1O [ATP],caspase-1 activity (inflammasome activation),[1],elicited a classic dose response
"CCCCCCCCCCCCC/C=C/[C@@H](O)[C@H](CO)NC(=O)CCCCC [C6-ceramide, N-hexanoyl-D-erythro-sphingosine]",caspase-1 activity (inflammasome activation),[1],activation of caspase-1
"O=P([O-])([O-])OP(=O)([O-])[O-].[Ca+2].[Ca+2] [CPPD, calcium pyrophosphate]",maximal response of caspase-1 activation,[2]; 24 h treatment,approximately 50 % of the ATP response
same,EC50,"[2]; Rattus norvegicus, 24 h, read-out: EC50 of caspase-1 activation",62.5 µg/mL
"COc1ccc(Cl)cc1C(=O)NCCc1ccc(S(=O)(=O)NC(=O)NC2CCCCC2)cc1 [GLY, glyburide]",concentration of proliferating cells (Ki-67+) in the hippocampus,BOO [3],blocked
same,density of activated microglia in the hippocampus,BOO [4],reduced back to control levels
same,crossing of the blood brain barrier,[5]; intact barrier,does not cross the blood brain barrier
same,binding in the serum,[5]; serum,mostly albumin-bound
same,open field: time exploring the middle of the field,BOO [6],restored this behavior
same,Evan's blue dye extravasation in the hippocampus,"BOO [7]; 6 weeks of BOO, glyburide treatment",blocked
same,leakage of Evan's blue into the hippocampus,"BOO [7]; 12 weeks of BOO, glyburide pellet",reduced back to control levels
same,bladder weight,BOO [8],suppresses this increase
same,sucrose preference,BOO [9],restored
"O=c1[nH]c(=O)c2[nH]c([O-])nc2[nH]1.[Na+] [MSU, monosodium urate]",caspase-1 activity (inflammasome activation),[1],activation of caspase-1
same,EC50 of caspase-1 activation,[2]; 24 h treatment of rat urothelial cells,0.156 µg/mL
same,maximal response of caspase-1 activation,[2]; 24 h treatment,25 % of the ATP response
"O=S(=O)([O-])CCS.[Na+] [Mesna, 2-mercaptoethane sulfonate sodium]","effects on bone marrow, hepatic, renal or CNS function",[10]; doses up to 100 mg/kg,"no apparent effects on bone marrow, hepatic, renal or CNS function"
same,fate in plasma,[10]; only a very small portion remaining in circulation,rapid oxidation in plasma
"CC(=O)N[C@@H](CS)C(=O)O [NAC, N-acetylcysteine]",concentration sufficient to completely suppress caspase-1 activation in MSU-treated cells,[2],500 µM
same,concentration sufficient to completely suppress caspase-1 activation in CPPD-treated cells,"[2]; 62.5 μg/mL CPPD 24 h, NAC 1 h before",5 mM
COc1ccc(CCN(C)CCCC(C#N)(c2ccc(OC)c(OC)c2)C(C)C)cc1OC (stereo not shown) [Verapamil],concentration sufficient to completely suppress caspase-1 activation in MSU-treated cells,[2],150 µM
same,IC50,"[2]; Rattus norvegicus, read-out: IC50 of caspase-1 activation in CPPD-treated cells",100 µM
O=C([O-])C(=O)[O-].[Ca+2] [calcium oxalate],caspase-1 activation in urothelial cells,[2]; 24 h treatment,activates caspase-1 in urothelial cells in a dose-dependent manner
CNCCC(Oc1ccc(C(F)(F)F)cc1)c1ccccc1 (stereo not shown) [fluoxetine],open field: time exploring the middle of the field,BOO [6],restored the exploratory behavior of these rats back to levels not statistically different from control
same,sucrose preference,BOO [9],restored sucrose preference back to levels not statistically different from control
AGES,caspase-1 activity (inflammasome activation),[1],activation of caspase-1
B1,caspase-1 activity (inflammasome activation),[1],activation of caspase-1

# Reference: patent publication US11559536B2, “Compositions and methods for the treatment of inflammation in urological pathology” (Duke University, priority 2019, dated 2023)
